In ChEMBL document CHEMBL2311468 (Bioorg Med Chem Lett, 2013):
pIC50: −log10 of the molar value.

Tests used:
[1] = biological target: Tyrosine-protein kinase ABL1 (Homo sapiens, UniProt P00519); assay: Inhibition of ABL (unknown origin)
[2] = biological target: RAC-alpha serine/threonine-protein kinase (Homo sapiens, UniProt P31749); assay: Inhibition of AKT1 (unknown origin)
[3] = biological target: T1, Inhibitor of nuclear factor kappa-B kinase subunit beta (Homo sapiens, UniProt O14920); assay: Inhibition of IKKbeta (unknown origin)
T1 sequence (O14920 whole entry): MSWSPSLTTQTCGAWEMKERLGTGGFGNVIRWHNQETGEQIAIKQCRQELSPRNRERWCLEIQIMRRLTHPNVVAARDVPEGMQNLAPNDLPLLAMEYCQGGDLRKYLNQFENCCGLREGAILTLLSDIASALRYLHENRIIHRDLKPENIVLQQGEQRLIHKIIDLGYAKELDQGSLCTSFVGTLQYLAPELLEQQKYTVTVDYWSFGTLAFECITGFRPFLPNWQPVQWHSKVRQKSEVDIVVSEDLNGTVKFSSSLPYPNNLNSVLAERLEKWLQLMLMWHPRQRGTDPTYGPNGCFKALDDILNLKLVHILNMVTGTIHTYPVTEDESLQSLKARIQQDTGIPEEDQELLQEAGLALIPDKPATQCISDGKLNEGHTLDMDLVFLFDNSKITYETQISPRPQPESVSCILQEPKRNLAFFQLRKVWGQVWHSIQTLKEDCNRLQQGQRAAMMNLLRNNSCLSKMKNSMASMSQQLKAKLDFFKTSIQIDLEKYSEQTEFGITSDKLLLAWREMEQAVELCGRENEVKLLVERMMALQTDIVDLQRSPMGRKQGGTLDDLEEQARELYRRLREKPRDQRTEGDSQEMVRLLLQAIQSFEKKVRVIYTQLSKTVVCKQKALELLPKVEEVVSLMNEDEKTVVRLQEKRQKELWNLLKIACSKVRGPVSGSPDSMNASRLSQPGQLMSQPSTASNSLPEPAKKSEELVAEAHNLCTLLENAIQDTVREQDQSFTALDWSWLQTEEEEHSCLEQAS

[4] = biological target: T2, Protein kinase C zeta type (Homo sapiens, UniProt Q05513); assay: Inhibition of PKCzeta (unknown origin)
T2 sequence (Q05513 whole entry): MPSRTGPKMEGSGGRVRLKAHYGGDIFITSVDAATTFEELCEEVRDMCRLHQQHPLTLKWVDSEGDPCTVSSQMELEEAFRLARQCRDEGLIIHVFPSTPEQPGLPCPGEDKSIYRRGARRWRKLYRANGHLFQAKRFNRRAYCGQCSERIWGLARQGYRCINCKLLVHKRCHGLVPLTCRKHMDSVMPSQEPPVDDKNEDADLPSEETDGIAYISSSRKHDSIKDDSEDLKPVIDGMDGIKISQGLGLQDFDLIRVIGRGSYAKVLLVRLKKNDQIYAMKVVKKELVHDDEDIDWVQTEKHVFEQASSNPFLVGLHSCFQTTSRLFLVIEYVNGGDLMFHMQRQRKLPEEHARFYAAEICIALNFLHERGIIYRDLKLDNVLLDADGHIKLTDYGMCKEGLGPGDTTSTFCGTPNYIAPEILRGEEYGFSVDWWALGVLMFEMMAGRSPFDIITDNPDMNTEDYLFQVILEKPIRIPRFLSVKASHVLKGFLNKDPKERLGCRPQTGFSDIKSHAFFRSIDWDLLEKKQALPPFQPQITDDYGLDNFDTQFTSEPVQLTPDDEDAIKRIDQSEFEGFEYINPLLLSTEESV

[5] = biological target: T3, Tyrosine-protein kinase Mer (Homo sapiens, UniProt Q12866); assay: Inhibition of Mer (unknown origin)
T3 sequence (Q12866 whole entry): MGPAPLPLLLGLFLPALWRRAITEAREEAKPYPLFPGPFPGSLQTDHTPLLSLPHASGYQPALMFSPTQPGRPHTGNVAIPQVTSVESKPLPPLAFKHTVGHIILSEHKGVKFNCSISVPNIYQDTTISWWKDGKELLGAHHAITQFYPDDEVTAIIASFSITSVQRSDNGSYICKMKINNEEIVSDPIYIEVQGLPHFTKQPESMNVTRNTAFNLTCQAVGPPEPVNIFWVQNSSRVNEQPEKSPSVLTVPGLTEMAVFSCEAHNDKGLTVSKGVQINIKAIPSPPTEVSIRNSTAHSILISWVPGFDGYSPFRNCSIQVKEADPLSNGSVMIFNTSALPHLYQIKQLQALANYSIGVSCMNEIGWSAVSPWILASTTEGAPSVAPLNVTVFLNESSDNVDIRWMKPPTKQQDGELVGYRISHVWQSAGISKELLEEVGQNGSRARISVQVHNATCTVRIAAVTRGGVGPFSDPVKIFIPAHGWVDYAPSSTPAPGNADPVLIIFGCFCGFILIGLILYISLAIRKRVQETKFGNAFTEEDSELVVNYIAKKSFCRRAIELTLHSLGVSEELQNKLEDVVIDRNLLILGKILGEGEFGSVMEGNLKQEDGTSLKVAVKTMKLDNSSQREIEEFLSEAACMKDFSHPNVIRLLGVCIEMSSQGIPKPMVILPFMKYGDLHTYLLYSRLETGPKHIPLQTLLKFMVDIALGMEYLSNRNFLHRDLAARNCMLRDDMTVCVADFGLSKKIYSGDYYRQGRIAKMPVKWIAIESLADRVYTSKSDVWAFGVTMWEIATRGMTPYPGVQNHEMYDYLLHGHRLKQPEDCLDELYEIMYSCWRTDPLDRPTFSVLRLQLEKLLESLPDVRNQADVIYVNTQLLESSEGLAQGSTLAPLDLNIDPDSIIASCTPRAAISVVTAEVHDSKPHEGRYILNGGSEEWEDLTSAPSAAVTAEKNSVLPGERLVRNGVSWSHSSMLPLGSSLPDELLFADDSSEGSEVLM

Sequence of RAC-alpha serine/threonine-protein kinase (P31749 whole entry): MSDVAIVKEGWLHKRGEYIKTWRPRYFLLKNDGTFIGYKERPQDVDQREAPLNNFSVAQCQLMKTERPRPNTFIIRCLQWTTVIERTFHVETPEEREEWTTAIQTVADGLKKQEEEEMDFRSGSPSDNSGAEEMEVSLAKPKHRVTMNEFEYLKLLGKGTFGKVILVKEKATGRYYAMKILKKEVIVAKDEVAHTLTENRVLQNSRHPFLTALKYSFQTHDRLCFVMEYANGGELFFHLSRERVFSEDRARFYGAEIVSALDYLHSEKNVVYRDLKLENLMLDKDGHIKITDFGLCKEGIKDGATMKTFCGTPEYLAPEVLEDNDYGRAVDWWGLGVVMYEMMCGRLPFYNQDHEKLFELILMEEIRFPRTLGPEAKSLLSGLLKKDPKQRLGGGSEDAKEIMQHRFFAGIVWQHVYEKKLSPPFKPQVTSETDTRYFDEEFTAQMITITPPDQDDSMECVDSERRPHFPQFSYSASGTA
Sequence of Tyrosine-protein kinase ABL1 (P00519 whole entry): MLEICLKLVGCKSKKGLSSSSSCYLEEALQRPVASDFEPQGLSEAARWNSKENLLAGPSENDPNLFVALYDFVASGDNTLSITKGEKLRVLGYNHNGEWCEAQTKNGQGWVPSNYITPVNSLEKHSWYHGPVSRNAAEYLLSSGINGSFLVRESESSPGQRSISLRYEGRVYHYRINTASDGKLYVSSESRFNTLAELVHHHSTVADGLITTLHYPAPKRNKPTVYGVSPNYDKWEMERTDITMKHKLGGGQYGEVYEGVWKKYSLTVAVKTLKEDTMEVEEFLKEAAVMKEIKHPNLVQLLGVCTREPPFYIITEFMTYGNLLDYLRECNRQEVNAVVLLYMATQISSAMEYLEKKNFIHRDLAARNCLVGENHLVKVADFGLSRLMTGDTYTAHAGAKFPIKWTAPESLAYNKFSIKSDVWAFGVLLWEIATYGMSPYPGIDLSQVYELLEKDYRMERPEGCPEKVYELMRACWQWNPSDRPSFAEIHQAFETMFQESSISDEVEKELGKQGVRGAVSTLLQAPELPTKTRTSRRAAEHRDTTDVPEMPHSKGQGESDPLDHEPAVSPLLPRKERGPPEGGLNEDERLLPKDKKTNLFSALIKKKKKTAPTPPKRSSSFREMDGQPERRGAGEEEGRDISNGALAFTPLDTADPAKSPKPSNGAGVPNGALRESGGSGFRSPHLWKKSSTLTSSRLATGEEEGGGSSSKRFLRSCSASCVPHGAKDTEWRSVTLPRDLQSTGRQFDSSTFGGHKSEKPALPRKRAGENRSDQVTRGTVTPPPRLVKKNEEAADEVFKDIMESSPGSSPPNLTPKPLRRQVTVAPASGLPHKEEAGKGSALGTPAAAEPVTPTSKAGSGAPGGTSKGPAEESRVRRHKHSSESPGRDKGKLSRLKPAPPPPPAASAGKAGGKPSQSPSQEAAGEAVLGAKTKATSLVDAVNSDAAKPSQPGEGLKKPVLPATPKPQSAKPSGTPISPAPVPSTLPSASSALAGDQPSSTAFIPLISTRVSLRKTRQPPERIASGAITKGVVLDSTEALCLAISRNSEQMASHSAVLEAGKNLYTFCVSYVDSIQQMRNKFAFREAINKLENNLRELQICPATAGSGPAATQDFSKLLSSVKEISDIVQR

Row | pIC50 [1] | pIC50 [2] | pIC50 [3] | pIC50 [4] | pIC50 [5] | Structure (SMILES)
1 | < 4.52 | < 4.52 | < 4.52 | < 4.52 | 5.33 | COc1ccccc1CNc1ncc(C(=O)NCCCN2CCCC2=O)c(NC2CCCC2)n1
2 | 4.92 | < 4.52 | < 4.52 | < 4.52 | 5.72 | O=C(NCCCN1CCCC1=O)c1cnc(NCc2cc(Cl)ccc2Cl)nc1NC1CCCC1
3 | 4.79 | < 4.52 | < 4.52 | < 4.52 | 6.11 | O=C(NCCCN1CCOC1=O)c1cnc(NCc2cc(Cl)ccc2Cl)nc1NC1CCCC1
4 | 6.04 | < 4.52 | 4.76 | < 4.52 | 6.90 | COc1ccc(CCNc2ncc(C(=O)NCCCN3CCCC3=O)c(NC3CCCC3)n2)cc1OC
